Where a name gives a salt, the structure may show the parent alone. Read-outs that look alike come from different tables or passages of the source.

This assay addresses T1, PAF receptor (Oryctolagus cuniculus, UniProt G1TEI7).
T1 construct: platelet membranes were prepared by centrifugation and washing; tissue Pel-Freez (Rogers, AR); host or cells: rabbit blood platelets (membranes prepared from citrated whole rabbit blood)
Description: PAF receptor binding assay: inhibition of specific [^3 H]C18 -PAF binding to rabbit platelet membranes.

[1] abbreviates: Table 1, rabbit platelet membranes, 0.6 nM [^3 H]C18 -PAF, 60 minutes at room temperature, Ki by Cheng and Prusoff, read-out: Ki.

T1 sequence (G1TEI7 1-342): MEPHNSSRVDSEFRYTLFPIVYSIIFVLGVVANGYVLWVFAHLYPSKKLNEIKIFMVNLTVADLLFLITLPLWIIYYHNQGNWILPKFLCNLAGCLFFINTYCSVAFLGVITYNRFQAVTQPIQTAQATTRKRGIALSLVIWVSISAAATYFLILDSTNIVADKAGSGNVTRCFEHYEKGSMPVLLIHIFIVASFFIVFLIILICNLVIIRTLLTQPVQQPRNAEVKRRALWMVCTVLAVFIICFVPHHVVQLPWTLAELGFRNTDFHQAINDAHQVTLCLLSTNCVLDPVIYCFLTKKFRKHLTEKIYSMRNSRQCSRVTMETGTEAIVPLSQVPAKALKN

One may read the Ki as the dissociation constant of the complex between target and ligand, obtained from inhibition or displacement. In turn, `Cc1nc2cnccc2n1Cc1ccc(C(=O)c2cn(C(=O)N(C)C)c3cccc(C#N)c23)cc1` [Example 150, 1-N,N-Dimethylcarbamoyl-4-cyano-3-{4-[(1H-2-methylimidazo[4.5-c]pyrid-1-yl)methyl]benzoyl}indole hydrochloride] gave a Ki of 40 nM.

`COC(=O)c1cccc2c1c(C(=O)c1ccc(Cn3c(C)nc4cnccc43)cc1)cn2CC(=O)C(C)(C)C` [Example 135, 1-(1-Pinacolyl)4-methoxycarbonyl-3-{4-[(1H-2-methylimidazo[4.5-c]pyrid-1-yl)methyl]benzoyl}indole] displayed a Ki of 1.3 nM.

`COC(=O)c1cccc2c1c(C(=O)c1ccc(Cn3c(C)nc4cnccc43)cc1)cn2S(=O)(=O)N(C)C` [Example 131, 1-N,N-Dimethylsulfamoyl-4-methoxycarbonyl-3-{4-[(1H-2-methylimidazo[4.5-c]pyrid-1-yl)methyl]benzoyl}indole] showed a Ki of 4.7 nM.

One may read the inhibition as the drop in the measured response relative to a control, in per cent. `Cc1nc2cnccc2n1CC(=O)c1cn(C(=O)N(C)C)c2ccccc12` [Example 26, 1-N,N-Dimethylcarbamoyl-3-[(1H-2-methylimidazo[4.5-c]pyrid-1-yl)methylcarbonyl]indole] came in with an inhibition at 1 µM of 7%.

For the molecule `Cc1nc2ccncc2n1Cc1ccc(C(=O)c2cn(C(=O)N(C)C)c3cc(-c4ccc(F)cc4)ccc23)cc1` [Example 7, 1-N,N-Dimethylcarbamoyl-6-(4-fluorophenyl)-3-{4-[(3H-2-methylimidazo[4.5-c]pyrid-3-yl)methyl]benzoyl}indole], the Ki is 700 nM.

Consider `Cc1nc2ccncc2n1CC(=O)c1cn(C(=O)N(C)C)c2ccccc12` [Example 25, 1-N,N-Dimethylcarbamoyl-3-[(3H-2-methylimidazo[4.5-c]pyrid-3-yl)methylcarbonyl]indole], for which, under “Table 1, @ 1.0 μM, read-out: % Inhibition”, the inhibition at 1 µM amounted to 14%.

For `CN(C)C(=O)n1cc(C(=O)c2ccc(Cn3c(-c4ccccc4)nc4cnccc43)cc2)c2ccccc21` [Example 32], the inhibition at 1 µM came to 10%.

On to “1-N,N-Dimethylcarbamoyl-4-chloro-3-{4-[(1H-2-methyl-5- and 6-chlorobenzimidazoyl)methyl]benzoyl}indole [Example 159]”, for which the Ki under setting [1] turned out to be 9 nM.

Regarding `Cc1nc2cnccc2n1Cc1ccc(C(=O)c2c[nH]c3ccccc23)cc1` [Example 13, 3-{4-[(1H-2-Methylimidazo[4.5-c]pyrid-1-yl)methyl]benzoyl}indole], the Ki under setting [1] was determined as 150 nM.

Take `CCOCCn1cc(C(=O)c2ccc(Cn3c(C)nc4cnccc43)cc2)c2c(Cl)cccc21` [Example 138, 1-(2-Ethoxyethyl)-4-chloro-3-{4-[(1H-2-methylimidazo[4.5-c]pyrid-1-yl)methyl]benzoyl}indole]: the inhibition constant Ki stood at 2.2 nM.

`Cc1nc2ccn(Cc3ccc(C(=O)c4cn(C(=O)N(C)C)c5ccccc45)cc3)cc-2n1` [Example 16, 1-N,N-Dimethylcarbamoyl-3-[4-(5H-2-methylimidazo[4.5-c]pyrid-5-ylmethyl)benzoyl]indole] returned an inhibition at 100 µM of 18%.

(Values after patent US5486525A, “Platelet activating factor antagonists: imidazopyridine indoles” (priority 1994, dated 1996).)
